In publication PMC12769565, “Design, synthesis and biological activity of glycoconjugated ADAMTS5 exosite inhibitors: applications in osteoarthritis and ovarian cancer models” (Scientific Reports, 2025):

Test system: A2780 OC cells over-expressing Rab25
Experiment: OC cell migration on cell-derived matrix (pseudopod length, directionality, velocity)
Type: cell-based
Conditions: cells on CDM
Protocol: A2780 OC cells over-expressing Rab25 (A2780-Rab25), generated in G. Mills lab[71], and telomerase-immortalised human fibroblasts (TIFs) were a gift from Jim Norman lab (CRUK Scotland Institute). A2780-Rab25 cells were grown in RPMI media (Gibco), supplemented with 10% (v/v) FBS. TIFs were grown in DMEM, supplemented with 10% FBS. To maintain Rab25 over-expression, A2780-Rab25 cells were selected with 0.4 mg/ml G418 every 10 passages.
CDMs were generated as previously described[72] in 12 well plates. Wells were coated with 0.2% gelatin for 60 min at 37 °C, crosslinked with 1% glutaraldehyde for 30 min at room temperature, quenched with 1 M glycine for 20 min at room temperature and equilibrated in DMEM for 30 min at 37 °C. TIFs (2.5 × 10^5 per well) were seeded for 24 h to achieve confluency and grown in the presence of 50 µg/ml ascorbic acid for 9 days. CDMs were washed with PBS, incubated with extraction buffer (20 mM NH4OH, 0.5% Triton X-100 in PBS with Ca^2+ and Mg^2+) for ~ 2 min, until no intact cells were visible by phase, washed twice with PBS with Ca^2+ and Mg^2+ and treated with 15 µg/ml DNase for 1 h at 37 °C, 5% CO2. CDMs were washed twice with PBS with Ca^2+ and Mg^2+ and stored in PBS with Ca^2+ and Mg^2+ at 4 °C for up to one month.
A2780-Rab25 cells (5 × 10^4 per well) were seeded onto a CDM-coated 12-well plate. Compound 2 was added 4 h after plating. Plates were imaged in a Nikon Inverted Ti eclipse microscope with Oko-lab environmental control chamber with a 10x/NA 0.45 objective. Cells were incubated at 37 °C and 5% CO2, images were acquired every 10 min for 12 h and more than 40 cells per well were quantified per biological replicate. Individual cell migration was manually tracked using MTrack2, a Fiji/ImageJ plugin. The chemotaxis tool plugin in Fiji/Image J (https://ibidi.com/chemotaxis-analysis/171-chemotaxis-and-migration-tool.html) was used to calculate the velocity and directionality of migrating cells.

[1] = tested at 10 or 50 µM, concentration of this value not stated

## CCC(C)N(Cc1cn(CCCO[C@@H]2O[C@H](CO)[C@@H](O[C@@H]3O[C@H](CO)[C@H](O)[C@H](O)[C@H]3O)[C@H](O)[C@H]2NC(C)=O)nn1)S(=O)(=O)c1ccc(-c2ccccc2)cc1 (stereo partly drawn) [compound 2, N-((2R,3R,4R,5 S,6R)-2-(3-(4-((N-(sec-butyl)-[1,1’-biphenyl]-4-sulfonamido)methyl)-1H-1,2,3-triazol-1-yl)propoxy)-4-hydroxy-6-(hydroxymethyl)-5-(((2 S,3R,4 S,5R,6R)-3,4,5-trihydroxy-6-(hydroxymethyl)tetrahydro-2 H-pyran-2-yl)oxy)tetrahydro-2 H-pyran-3-yl)acetamide]
10 or 50 µM
  velocity of cell migration: without affecting
[1]
  inhibition in directionality of cell migration: 43%
  inhibition in pseudopod elongation: 35%
